Data on 2 compounds can be found in patent publication US5368864A, “Formulation of oxypurinol and/or its alkali and alkaline earth salts” (Henning Berlin GmbH Chemie- und Pharmawerk, priority 1988, dated 1994).

The conditions of series [1]: cited from earlier work.
For series [2] the following is noted: associated with sparing solubility; cited from earlier work.
Series [3] in a line: Dissolution test (USP XXI dissolution tester) of oxypurinol sodium monohydrate and formulations in 0.1 N hydrochloric acid, spectrophotometric at 245 nm. Type of series: physicochemical. The conditions noted are these: for Dissolved amount of active substance (cumulated values): 0.1 N HCl, 37° C. The protocol: The dispersion of solids containing oxypurinol was mixed with the adjuvants indicated, and pressed to give tablets having a content of 150 mg of active substance. Two tablets, corresponding to 300 mg of oxypurinol sodium monohydrate, were tested for liberation of active substance.
(§1) The forms according to the invention were tested for solubility and rate of dissolution, respectively, in comparison to crystalline oxypurinol sodium monohydrate finely powdered in a mortar.
United States Pharmacopoeia (USP XXI)
0.1 N hydrochloric acid
Measurements were effected spectrophotometrically at 245 nm.

A short description of series [4]: Solubility as a function of pH value and time as compared to crystalline active substance. In kind it is physicochemical. The conditions noted are these: solids dispersion is test 3; for solubility at 1 h: 60 minutes. The protocol: as §1
Solubility according to example 1 (test 3) as a function of pH value and
as compared to crystalline active substance (values in mg/liter)

Series [5] can be described thus: Solubility and pH of aqueous solutions (background statements). Type of series: physicochemical.

As to `O=c1[nH]c(=O)c2c[nH]nc2[nH]1` [Oxypurinol, 4,6-dihydroxypyrazolo[3,4-d]pyrimidine], in series [1], the “solubility in water and digestive juice” value is “sparingly soluble”. Besides, the absorbability result in series [2] is on record as “insufficient absorbability”.
Take `O=c1[nH]c(=O)c2c[nH]nc2[nH]1` [oxypurinol sodium monohydrate, Oxypurinol sodium monohydrate]: the solubility at 5 min in series [3] (0.1 n hcl, after 5 minutes) is 0.043 mg/mL; in series [4] (pH = 1.5) it was 0.043 mg/mL; in series [4] (pH = 3.0), 0.081 mg/mL; in series [4] (pH = 4.5), 0.085 mg/mL; in series [4] (pH = 6.5), 0.243 mg/mL. In addition, the solubility at 1 h turned out to be 0.142 mg/mL in series [3] (0.1 n hcl, after 60 minutes); 0.222 mg/mL in series [4] (pH = 3.0); 0.243 mg/mL in series [4] (pH = 4.5); 0.29 mg/mL in series [4] (pH = 6.5). Besides, the solubility at 24 h in series [3] (0.1 n hcl, after 24 hours, read-out: maximum solubility) was around 0.28 mg/mL. In addition, in series [3] (0.1 n hcl, after another 24 hours, read-out: solubility as a constant for the substance), the solubility at 48 h is around 0.26 mg/mL. The “Dissolved amount of active substance (cumulated values)” value in series [3] (5 min) stood at 43 mg/L; in series [3] (10 min), 62 mg/L; in series [3] (20 min) it was 88 mg/L; in series [3] (30 min), 115 mg/L; in series [3] (45 min), 126 mg/L; in series [3] (60 min), 142 mg/L. Besides, the “Dissolved amount of active substance (cumulated values)” value in series [3] (180 min) is 207 mg/L; in series [3] (24 hrs) it was 280 mg/L; in series [3] (48 hrs), 263 mg/L. Also, in series [3] (measurement time of 5 minutes), the rate of dissolution entry is on record as “about 43 mg/5 min”. For the same compound, the solubility at 10 min stood at 0.062 mg/mL in series [4] (pH = 1.5), 0.11 mg/mL in series [4] (pH = 3.0), 0.11 mg/mL in series [4] (pH = 4.5) and 0.261 mg/mL in series [4] (pH = 6.5). In series [5] (aqueous solution), the “pH value of aqueous solutions” value was found to be 9.5. Besides, the solubility in series [5] (water, 25° C., read-out: concentration permitted in aqueous solutions) was around 15 mg/mL.
